Experimental data: patent EP0373623A2, “Pharmaceutical compositions useful in potentiating natural killer cell activity” (MERRELL DOW PHARMACEUTICALS INC., priority 1988, dated 1990)

System: Hepatic metastases
Assay: Induced hepatic metastases after intrasplenic tumor cell injection
Type: in vivo, C57BL/6 mice
Details: DAP 100 mg/kg; for Metastic foci: mean ± S.E., n=8; for % Reduction: reduction in metastic foci from PBS control group
Experimental: Hepatic metastases were induced as follows. C57BL/6 mice were anesthetized by […] of pentobarbital. The mice were prepped with 70% ethanol, dried with a sterile gauze, and then, with the use of sterile scissors, a small left subcostal incision was made. The spleen was exposed, and its short gastric vessels along with the gastrosplenic ligament were cut, allowing the spleen to be brought onto the animal's abdominal wall attached to its splenic pedicle. […] of a single cell suspension containing 3 x 10⁵ tumor cells in HBSS was injected into the upper pole of the exposed extraabdominal spleen. After the injection was completed, the needle was removed, and a period of 1 minute was allowed to elapse to permit tumor cells to be flushed into the portal circulation. The splenic pedicle was clipped, the spleen was removed, and splenic pedicle was dropped i.p. The abdominal wall musculature and skin were closed in one layer. The animals were randomly allocated to their respective treatment groups and were allowed to recover. By day 3 after tumor injection, micrometastases were apparent histologically.
Each group was then treated with DAP, intraperitonealy, subcutaneously, or orally. A control group was treated with phosphate buffered saline (PBS). Metastic foci was determined and the percent reduction in metastic foci from the control group was determined with each group treated with DAP as follows: […]

CC(=O)NCCCCNC(C)=O [DAP, Diacetylputrescine]
Metastic foci (d1-10, i.p.): 40.8 ± 14.7 | % Reduction (d1-10, i.p.): 65.9% | Metastic foci (d1-10, p.o.): 27.2 ± 7.1 | % Reduction (d1-10, p.o.): 77.3% | Metastic foci (d1-10, s.c.): 31.0 ± 8.4 | % Reduction (d1-10, s.c.): 74.1%
